The test system of test [1] is rice (Oryza sativa L. japonica). The test is described as follows: Effects on rice seedlings under salt-stress caused by sodium chloride (NaCl). Type of test: in vivo. To be noted: 7 days after transplantation, mean ± S.E. How it is done:
(§1) A filter paper soaked with an aqueous solution of a test agent was laid in a germination dish. Even-sized seeds of rice (Oryza sativa L. japonica) were selected, washed with an aqueous solution containing 0.5% Tween 20 and 1.0% sodium hypochlorite, and then dried. The gemination dishes were sowed with the said rice seeds.
(§2) The seeds were treated with the aqueous solution of the test agent only during the germination period (4 days). The five seeds having equal root lengths were transplanted from germination dishes to water culture vessels with/without NaCl-solution, not containing any test drug. Lengths and weights of both shoots and roots were measured 7 days after transplantation.
(§3) These tests (30° C., 24 h daylight) were repeated 6 times, and the mean value and standard error (S.E.) were obtained.

Test [2] has as its system tomato seedlings. In words: Effects on tomato seedlings under salt-stress caused by NaCl. Format: in vivo. To be noted: 0.5% NaCl for 22 days, 25~30° C., 12 h daylight, n = 12~18. How it is done: Tomato seeds were treated with the aqueous solution of the test agent during the germination period (4 days). 9 days after transplantation from germination dishes to water culture vessels, 0.5% NaCl-solution was added to the vessels. The tomato seedlings had been cultivated for 22 days in the culture medium containing NaCl.

Test [3] relates to azalea cuttings. The test is described as follows: Effect on azaleas under salt-stress caused by CaCl2. To be noted: cuttings in 1×10^-6 M test solution; 20% CaCl2 sprayed; 30 days after CaCl2 treatment; result in words. Format: in vivo. How it is done:
Branches about 20 cm from the top of an azalea bush were cut off. The cuttings were dipped into 50 ml of water of the test solution (compound 9; 1×10^-6 M) in a glass culture tube. The solution was replaced with new solution once a week. Six days after cutting of the branches, a 20% solution of CaCl2, which has been used as an antifreezing agent, was sprayed on the cuttings. Thirty days after the CaCl2 treatment, the rate of azalea budding was measured using the following equation: [formula]

The subject of test [4] is rice seedlings. The test is described as follows: Effects on rice seedlings under water-stress caused by mannitol. Particulars: 25° C., 14 h daylight. Format: in vivo, Oryza sativa L. japonica. How it is done: as §1
The seeds were treated with the aqueous solution of the test agent only during the germination period (4 days). The five seeds having equal root lengths were transplanted from germination dishes to water culture vessels with/without NaCl-solution, not containing any test drug. Lengths and weights of both shoots and roots were measured 7 days after transplantation. […]
Using mannitol instead of NaCl in the similar manner (I) as mentioned above, the effects of the compounds of the present invention inducing resistance against water-stress were studied.

Test [5] relates to cucumber seedlings. The test is described as follows: Effects on cucumber seedlings under salt-stress caused by NaCl. Format: in vivo. Particulars: 0.5% NaCl for 25 days, 25~32° C., 12 h daylight, n = 5. How it is done:
Cucumber seeds were treated with the aqueous solution of the test agent during the germination period (3 days). 11 days after transplantation from germination dishes to water culture vessels, 0.5% NaCl-solution was added to the vessels. The cucumber seedlings had been for 25 days cultivated in the culture medium containing NaCl.

Test [6] relates to rice (Oryza sativa L. japonica). The test is described as follows: Rice growth in water culture with NaCl in the medium (no test agent). Type of test: in vivo. Particulars: for Root length / Shoot length: no test agent, 7 days after transplantation, mean ± S.E. The procedure: as §1, §2, §3
The mark [7] stands for this setting: 1.5% NaCl, compound 1 × 10^-6 M during germination.
Setting [8] is: 1.0% NaCl, compound 1 × 10^-4 M during germination (4 days).
Setting [9] is: 1.0% NaCl, compound 1 × 10^-10 M during germination.
Where [10] appears, read: 1.5% NaCl, compound 1 × 10^-4 M during germination.
Where [11] appears, read: 1.5% NaCl, compound 1 × 10^-10 M during germination.
[12] abbreviates: 1.0% NaCl, compound 5 × 10^-6 M during germination.
[13] abbreviates: 1.0% NaCl, compound 5 × 10^-8 M during germination.
[14] abbreviates: 1.5% NaCl, compound 5 × 10^-8 M during germination.
[15] abbreviates: 1.5% NaCl, compound 5 × 10^-10 M during germination.
[16] abbreviates: 1.0% NaCl, compound 5 × 10^-4 M during germination.
[17] abbreviates: 1.5% NaCl, compound 5 × 10^-4 M during germination.
Where [18] appears, read: 2.5% mannitol, compound 1 × 10^-4 M.
[19] abbreviates: 2.5% mannitol, compound 1 × 10^-8 M.
Where [20] appears, read: 5.0% mannitol, compound 1 × 10^-4 M.
[21] abbreviates: 5.0% mannitol, compound 1 × 10^-8 M.
Where [22] appears, read: 1.5% NaCl, compound 5 × 10^-6 M during germination.
Where [23] appears, read: 1.0% NaCl, compound 1 × 10^-6 M during germination.
[24] abbreviates: 1.0% NaCl, compound 1 × 10^-8 M during germination.
Setting [25] is: 1.5% NaCl, compound 1 × 10^-8 M during germination.
[26] abbreviates: 1.5% NaCl, compound 1 × 10^-10-6 M (so in the source) during germination.

On to `O=C1[C@@H]2CCCN2C(=O)[C@@H]2CCCN12` (racemic) [Compound 15, ±Cyclo(Pro-Pro)], for which, in test [1] (setting [7]), the Root length is listed as 42.7 ± 1.65 mm and the Shoot length was 24.2 ± 0.50 mm.
With `CC(C)C[C@@H]1NC(=O)[C@@H]2CCCN2C1=O` [Compound 2, Cyclo (L-Leu-L-Pro)], the Root length in test [1] (setting [8]) came to 38.2 ± 1.60 mm; in test [1] (setting [9]), 37.3 ± 1.69 mm; in test [1] (setting [10]) it was 38.3 ± 1.89 mm; in test [1] (setting [11]), 39.2 ± 2.11 mm. Also, the Shoot length in test [1] (setting [8]) was found to be 30.4 ± 0.60 mm; in test [1] (setting [9]), 31.1 ± 0.60 mm; in test [1] (setting [10]), 22.3 ± 0.53 mm; in test [1] (setting [11]), 21.9 ± 0.53 mm.
As for `CC[C@H](C)[C@@H]1NC(=O)[C@@H]2C[C@@H](O)CN2C1=O` [Compound 4, Cyclo(L-Ile-L-Hyp)], the Root length in test [1] (setting [12]) turned out to be 19.9 ± 0.60 mm; in test [1] (setting [13]) it was 21.2 ± 0.68 mm; in test [1] (setting [14]) it was 14.9 ± 0.52 mm; in test [1] (setting [15]) it was 14.7 ± 0.52 mm. For the same compound, the Shoot length in test [1] (setting [12]) was found to be 30.9 ± 1.24 mm; in test [1] (setting [13]), 27.1 ± 0.67 mm; in test [1] (setting [14]) it was 16.0 ± 0.75 mm; in test [1] (setting [15]) it was 16.3 ± 0.66 mm.
For `CC(C)C[C@@H]1NC(=O)[C@@H]2C[C@@H](O)CN2C1=O` [Compound 5, Cyclo (L-Leu-L-Hyp)], the Root length in test [1] (setting [16]) worked out at 19.7 ± 0.69 mm; in test [1] (setting [13]) it was 20.5 ± 0.87 mm; in test [1] (setting [17]), 13.9 ± 0.61 mm; in test [1] (setting [14]), 15.7 ± 0.58 mm. Further, the Shoot length in test [1] (setting [16]) turned out to be 28.7 ± 0.87 mm; in test [1] (setting [13]) it was 25.4 ± 0.83 mm; in test [1] (setting [17]), 17.1 ± 0.76 mm; in test [1] (setting [14]) it was 15.6 ± 0.28 mm.
Consider `O=C1[C@@H]2C[C@@H](O)CN2C(=O)[C@@H]2CCCN12` [Compound 9, Cyclo(L-Pro-L-Hyp)], for which the “Dried stem and leaves weight” value stood at 111.4 ± 8.8 mg in test [2] (compound 1 × 10^-6 M during germination (4 days)) and 141.4 ± 14.4 mg in test [2] (compound 1 × 10^-8 M during germination (4 days)). Besides, the “Protection of azaleas against salt-stress (rate of azalea budding, FIG. 1)” value in test [3] is given as “protecting azaleas against salt-stress”. The Root length in test [4] (setting [18]) was found to be 67.7 ± 23.84 mm; in test [4] (setting [19]), 68.2 ± 10.42 mm; in test [4] (setting [20]), 39.6 ± 1.80 mm; in test [4] (setting [21]) it was 46.7 ± 9.51 mm; in test [1] (setting [16]), 19.5 ± 0.96 mm; in test [1] (setting [13]), 21.8 ± 0.86 mm. The values for the Root length in test [1] (setting [22]) and in test [1] (setting [15]) were 15.9 ± 0.44 mm and 14.0 ± 0.49 mm, respectively. The Shoot length in test [4] (setting [18]) is reported as 70.2 ± 3.73 mm; in test [4] (setting [19]) it was 63.4 ± 2.18 mm; in test [4] (setting [20]), 30.0 ± 2.29 mm; in test [4] (setting [21]) it was 27.1 ± 1.55 mm; in test [1] (setting [16]) it was 28.8 ± 0.99 mm; in test [1] (setting [13]) it was 27.1 ± 0.83 mm. The values for the Shoot length in test [1] (setting [22]) and in test [1] (setting [15]) were 17.3 ± 0.42 mm and 16.0 ± 0.64 mm, respectively. In addition, the Dried stem weight in test [5] (compound 1 × 10^-6 M during germination (3 days)) was determined as 104.9 ± 7.37 mg; in test [5] (compound 1 × 10^-8 M during germination (3 days)) it was 95.5 ± 3.25 mg.
With `O=C1[C@@H]2C[C@@H](O)CN2C(=O)[C@@H]2C[C@@H](O)CN12` [Compound 13, Cyclo(L-Hyp-L-Hyp)], the Root length turned out to be 38.5 ± 1.66 mm in test [1] (setting [23]), 38.1 ± 2.03 mm in test [1] (setting [24]), 35.6 ± 2.28 mm in test [1] (setting [10]) and 37.9 ± 1.58 mm in test [1] (setting [25]). The Shoot length was 29.4 ± 0.61 mm in test [1] (setting [23]), 30.5 ± 0.59 mm in test [1] (setting [24]), 21.4 ± 0.69 mm in test [1] (setting [10]) and 21.9 ± 0.40 mm in test [1] (setting [25]).
For `O=C1[C@@H]2C[C@H](O)CN2C(=O)[C@@H]2C[C@H](O)CN12` [Compound 14, Cyclo(L-aHyp-L-aHyp)], the Root length came out at 43.2 ± 1.69 mm in test [1] (setting [23]), 38.2 ± 1.57 mm in test [1] (setting [9]), 35.0 ± 1.77 mm in test [1] (setting [10]) and 35.3 ± 1.93 mm in test [1] (setting [26]). The Shoot length turned out to be 31.8 ± 0.57 mm in test [1] (setting [23]), 30.4 ± 0.60 mm in test [1] (setting [9]), 21.8 ± 0.58 mm in test [1] (setting [10]) and 22.6 ± 0.83 mm in test [1] (setting [26]).
For `[Cl-].[Na+]` [NaCl, sodium chloride], the Root length in test [6] (0.1% NaCl in water culture) came out at 53.3 ± 2.61 mm; in test [6] (0.2% NaCl in water culture), 39.7 ± 2.02 mm; in test [6] (0.3% NaCl in water culture), 37.8 ± 1.48 mm; in test [6] (0.5% NaCl in water culture), 33.8 ± 1.76 mm; in test [6] (0.75% NaCl in water culture), 32.9 ± 1.07 mm; in test [6] (1.0% NaCl in water culture), 34.0 ± 1.75 mm. The Shoot length amounted to 78.0 ± 1.74 mm in test [6] (0.1% NaCl in water culture); 77.6 ± 1.63 mm in test [6] (0.2% NaCl in water culture); 79.2 ± 1.48 mm in test [6] (0.3% NaCl in water culture); 45.3 ± 1.82 mm in test [6] (0.5% NaCl in water culture); 34.7 ± 0.66 mm in test [6] (0.75% NaCl in water culture); 28.2 ± 0.47 mm in test [6] (1.0% NaCl in water culture). For the same compound, the “Rice growth with NaCl in the medium” value in test [6] (Table 1, result in words) is “apparently inhibited”.

The values above are taken from patent publication US5446021A, “Agricultural and horticultural compositions inducing resistance in plants against salt- and water-stress” (Nippon Zoki Pharmaceutical Co., Ltd., priority 1988, dated 1995).
